Data as given in US20240124439A1, “Pyrido[2,3-D]Imidazole Derivatives and Their Use As Inhibitors of ITK for the Treatment of Skin Disease” (Pfizer Inc., priority 2020, published 2024).

Tests used:
[1] = test system: activated CD4+ human T-cells (IL-2); experiment: IL-2 inhibition in supernatants from activated CD4+ human T-cells (cisbio HTRF); assay type: cell-based; details: T-cell; CD3/CD28-activated CD4+ human T cells, ImmunoCult stimulation 20 to 24 hrs; geometric mean of count n
Procedure, shortened: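 Primary human CD4+ T cells activated with CD3/CD28 for 3 days and expanded to 7-9 days total, plated at 30,000 cells/well. Cells preincubated 15 min with compound, then stimulated with ImmunoCult (1:50 final) for 20-24 h at 37° C. Supernatant IL-2 measured by HTRF (665/615 nm); IC50 from four-parameter logistic fit.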

[2] = target: IL-2-Inducible T-Cell Kinase (ITK) (Homo sapiens (Human), UniProt Q08881); experiment: ITK enzyme assay (IL-2-inducible T-cell kinase activity); assay type: biochemical; details: geometric mean of count n
IL-2-Inducible T-Cell Kinase (ITK), sequence (Q08881 whole entry): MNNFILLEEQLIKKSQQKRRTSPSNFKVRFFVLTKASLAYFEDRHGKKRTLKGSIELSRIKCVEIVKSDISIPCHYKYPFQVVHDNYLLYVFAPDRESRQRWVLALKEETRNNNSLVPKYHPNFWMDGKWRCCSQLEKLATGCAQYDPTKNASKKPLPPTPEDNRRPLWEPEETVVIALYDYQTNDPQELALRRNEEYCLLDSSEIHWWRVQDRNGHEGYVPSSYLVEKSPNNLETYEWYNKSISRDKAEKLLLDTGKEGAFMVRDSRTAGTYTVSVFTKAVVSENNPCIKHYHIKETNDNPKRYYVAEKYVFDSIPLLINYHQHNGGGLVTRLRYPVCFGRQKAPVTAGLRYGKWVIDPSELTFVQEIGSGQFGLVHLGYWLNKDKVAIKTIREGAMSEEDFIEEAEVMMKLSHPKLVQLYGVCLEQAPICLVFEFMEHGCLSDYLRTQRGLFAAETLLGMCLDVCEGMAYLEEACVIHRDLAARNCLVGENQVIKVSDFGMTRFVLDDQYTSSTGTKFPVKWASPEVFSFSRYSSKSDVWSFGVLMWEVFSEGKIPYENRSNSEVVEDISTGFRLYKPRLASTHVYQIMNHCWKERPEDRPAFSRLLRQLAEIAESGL
Procedure, shortened: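 Full-length N-Flag/C-His human ITK, pre-incubated 30 min at RT with compound. Reaction in HEPES pH 7.5 buffer with MgCl2, glutathione, gelatin and Brij-35, started with BTK peptide substrate, 60 min at RT. EDTA stop, PT66/APC TR-FRET detection overnight; IC50 fitted by four-parameter logistic.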

| IC50 [1] | IC50 [2] | SMILES |
| --- | --- | --- |
| 208 nM | 103 nM | CN(C(=O)[C@@H]1CCCCO1)c1cnc2nc(-c3n[nH]c4c3C[C@@H]3C[C@]3(C)C4)[nH]c2c1 [Example 64, (S)-N-Methyl-N-(2-((4aS,5aR)-5a-methyl-1,4,4a,5,5a,6-hexahydrocyclopropa[f]indazol-3-yl)-1H-imidazo[4,5-b]pyridin-6-yl)tetrahydro-2H-pyran-2-carboxamide] |
| 59 nM | 12 nM | CN(C(=O)[C@@H]1C[C@@H]2[C@H](C1)C2(F)F)c1cnc2nc(-c3n[nH]c4c3C[C@@H]3C[C@]3(C)C4)[nH]c2c1 [Example 67, (1R,3s,5S)-6,6-Difluoro-N-methyl-N-(2-((4aS,5aR)-5a-methyl-1,4,4a,5,5a,6-hexahydrocyclopropa[f]indazol-3-yl)-1H-imidazo[4,5-b]pyridin-6-yl)bicyclo[3.1.0]hexane-3-carboxamide] |
| 177 nM | 107 nM | CN(C(=O)[C@H]1CCCCO1)c1cnc2nc(-c3n[nH]c4c3C[C@@H]3C[C@]3(C)C4)[nH]c2c1 [Example 68, (R)-N-Methyl-N-(2-((4aS,5aR)-5a-methyl-1,4,4a,5,5a,6-hexahydrocyclopropa[f]indazol-3-yl)-1H-imidazo[4,5-b]pyridin-6-yl)tetrahydro-2H-pyran-2-carboxamide] |
| 1160 nM | 292 nM | CN(C(=O)[C@H]1[C@@H]2COC[C@@H]21)c1cnc2nc(-c3n[nH]c4c3C[C@@H]3C[C@]3(C)C4)[nH]c2c1 [Example 69, (1R,5S,6r)-N-Methyl-N-(2-((4aS,5aR)-5a-methyl-1,4,4a,5,5a,6-hexahydrocyclopropa[f]indazol-3-yl)-1H-imidazo[4,5-b]pyridin-6-yl)-3-oxabicyclo[3.1.0]hexane-6-carboxamide] |
| 313 nM | 42 nM | CCCC(=O)N(C)c1cnc2nc(-c3n[nH]c4c3C[C@@H]3C[C@]3(C)C4)[nH]c2c1 [Example 71, N-Methyl-N-(2-((4aS,5aR)-5a-methyl-1,4,4a,5,5a,6-hexahydrocyclopropa[f]indazol-3-yl)-1H-imidazo[4,5-b]pyridin-6-yl)butyramide] |
| 247 nM | 27 nM | CN(C(=O)CC1CCC1)c1cnc2nc(-c3n[nH]c4c3C[C@@H]3C[C@]3(C)C4)[nH]c2c1 [Example 77, 2-Cyclobutyl-N-methyl-N-(2-((4aS,5aR)-5a-methyl-1,4,4a,5,5a,6-hexahydrocyclopropa[f]indazol-3-yl)-1H-imidazo[4,5-b]pyridin-6-yl)acetamide] |
| 182 nM | 21 nM | CN(C(=O)C1CCCC1)c1cnc2nc(-c3n[nH]c4c3C[C@@H]3C[C@]3(C)C4)[nH]c2c1 [Example 81, N-Methyl-N-(2-((4aS,5aR)-5a-methyl-1,4,4a,5,5a,6-hexahydrocyclopropa[f]indazol-3-yl)-1H-imidazo[4,5-b]pyridin-6-yl)cyclopentanecarboxamide] |
| 371 nM | 47 nM | CC[C@H](C)C(=O)N(C)c1cnc2nc(-c3n[nH]c4c3C[C@@H]3C[C@]3(C)C4)[nH]c2c1 [Example 83, (S)-N,2-Dimethyl-N-(2-((4aS,5aR)-5a-methyl-1,4,4a,5,5a,6-hexahydrocyclopropa[f]indazol-3-yl)-1H-imidazo[4,5-b]pyridin-6-yl)butanamide] |
| 1220 nM | 91 nM | CN(C(=O)C12CC(C1)C2)c1cnc2nc(-c3n[nH]c4c3C[C@@H]3C[C@]3(C)C4)[nH]c2c1 [Example 85, N-Methyl-N-(2-((4aS,5aR)-5a-methyl-1,4,4a,5,5a,6-hexahydrocyclopropa[f]indazol-3-yl)-1H-imidazo[4,5-b]pyridin-6-yl)bicyclo[1.1.1]pentane-1-carboxamide] |
| 246 nM | 26 nM | CC[C@@H](C)C(=O)N(C)c1cnc2nc(-c3n[nH]c4c3C[C@@H]3C[C@]3(C)C4)[nH]c2c1 [Example 87, (R)-N,2-Dimethyl-N-(2-((4aS,5aR)-5a-methyl-1,4,4a,5,5a,6-hexahydrocyclopropa[f]indazol-3-yl)-1H-imidazo[4,5-b]pyridin-6-yl)butanamide] |
| 324 nM | 27 nM | CN(c1cnc2nc(-c3n[nH]c4c3C[C@@H]3C[C@]3(C)C4)[nH]c2c1)C(=O)[C@H]1C[C@@H](C)C1 [Example 89, (1s,3R)-N,3-Dimethyl-N-(2-((4aS,5aR)-5a-methyl-1,4,4a,5,5a,6-hexahydrocyclopropa[f]indazol-3-yl)-1H-imidazo[4,5-b]pyridin-6-yl)cyclobutane-1-carboxamide] |

Continued, molecule first:

| SMILES | IC50 [1] | IC50 [2] |
| --- | --- | --- |
| CCC1(C(=O)N(C)c2cnc3nc(-c4n[nH]c5c4C[C@@H]4C[C@]4(C)C5)[nH]c3c2)CCOCC1 [Example 65, 4-Ethyl-N-methyl-N-(2-((4aS,5aR)-5a-methyl-1,4,4a,5,5a,6-hexahydrocyclopropa[f]indazol-3-yl)-1H-imidazo[4,5-b]pyridin-6-yl)tetrahydro-2H-pyran-4-carboxamide] | 568 nM | 150 nM |
| CN(C(=O)C1(C)CC(F)(F)C1)c1cnc2nc(-c3n[nH]c4c3C[C@@H]3C[C@]3(C)C4)[nH]c2c1 [Example 66, 3,3-Difluoro-N,1-dimethyl-N-(2-((4aS,5aR)-5a-methyl-1,4,4a,5,5a,6-hexahydrocyclopropa[f]indazol-3-yl)-1H-imidazo[4,5-b]pyridin-6-yl)cyclobutane-1-carboxamide] | 292 nM | 92 nM |
| CN(C(=O)C1(C)CCOCC1)c1cnc2nc(-c3n[nH]c4c3C[C@@H]3C[C@]3(C)C4)[nH]c2c1 [Example 70, N,4-Dimethyl-N-(2-((4aS,5aR)-5a-methyl-1,4,4a,5,5a,6-hexahydrocyclopropa[f]indazol-3-yl)-1H-imidazo[4,5-b]pyridin-6-yl)tetrahydro-2H-pyran-4-carboxamide] | 462 nM | 93 nM |
| CC(C)CC(=O)N(C)c1cnc2nc(-c3n[nH]c4c3C[C@@H]3C[C@]3(C)C4)[nH]c2c1 [Example 72, N,3-Dimethyl-N-(2-((4aS,5aR)-5a-methyl-1,4,4a,5,5a,6-hexahydrocyclopropa[f]indazol-3-yl)-1H-imidazo[4,5-b]pyridin-6-yl)butanamide] | 248 nM | 39 nM |
| CN(C(=O)CC(C)(C)C)c1cnc2nc(-c3n[nH]c4c3C[C@@H]3C[C@]3(C)C4)[nH]c2c1 [Example 73, N,3,3-Trimethyl-N-(2-((4aS,5aR)-5a-methyl-1,4,4a,5,5a,6-hexahydrocyclopropa[f]indazol-3-yl)-1H-imidazo[4,5-b]pyridin-6-yl)butanamide] | 498 nM | 57 nM |
| CC(C)CCC(=O)N(C)c1cnc2nc(-c3n[nH]c4c3C[C@@H]3C[C@]3(C)C4)[nH]c2c1 [Example 74, N,4-Dimethyl-N-(2-((4aS,5aR)-5a-methyl-1,4,4a,5,5a,6-hexahydrocyclopropa[f]indazol-3-yl)-1H-imidazo[4,5-b]pyridin-6-yl)pentanamide] | 311 nM | 50 nM |
| CC(=O)N(CC(=O)N(C)c1cnc2nc(-c3n[nH]c4c3C[C@@H]3C[C@]3(C)C4)[nH]c2c1)C(C)C [Example 75, 2-(N-Isopropylacetamido)-N-methyl-N-(2-((4aS,5aR)-5a-methyl-1,4,4a,5,5a,6-hexahydrocyclopropa[f]indazol-3-yl)-1H-imidazo[4,5-b]pyridin-6-yl)acetamide] | 862 nM | 57 nM |
| CCC(C)CC(=O)N(C)c1cnc2nc(-c3n[nH]c4c3C[C@@H]3C[C@]3(C)C4)[nH]c2c1 (stereo partly drawn) [Example 76, N,3-Dimethyl-N-(2-((4aS,5aR)-5a-methyl-1,4,4a,5,5a,6-hexahydrocyclopropa[f]indazol-3-yl)-1H-imidazo[4,5-b]pyridin-6-yl)pentanamide] | 389 nM | 51 nM |
| CC(C)C(=O)N(C)CC(=O)N(C)c1cnc2nc(-c3n[nH]c4c3C[C@@H]3C[C@]3(C)C4)[nH]c2c1 [Example 78, N-Methyl-N-(2-(methyl(2-((4aS,5aR)-5a-methyl-1,4,4a,5,5a,6-hexahydrocyclopropa[f]indazol-3-yl)-1H-imidazo[4,5-b]pyridin-6-yl)amino)-2-oxoethyl)isobutyramide] | 552 nM | 35 nM |
| CN(C(=O)CN1CCCCC1=O)c1cnc2nc(-c3n[nH]c4c3C[C@@H]3C[C@]3(C)C4)[nH]c2c1 [Example 79, N-Methyl-N-(2-((4aS,5aR)-5a-methyl-1,4,4a,5,5a,6-hexahydrocyclopropa[f]indazol-3-yl)-1H-imidazo[4,5-b]pyridin-6-yl)-2-(2-oxopiperidin-1-yl)acetamide] | 1590 nM | 43 nM |
| CCC(CC)C(=O)N(C)c1cnc2nc(-c3n[nH]c4c3C[C@@H]3C[C@]3(C)C4)[nH]c2c1 [Example 82, 2-Ethyl-N-methyl-N-(2-((4aS,5aR)-5a-methyl-1,4,4a,5,5a,6-hexahydrocyclopropa[f]indazol-3-yl)-1H-imidazo[4,5-b]pyridin-6-yl)butanamide] | 176 nM | 20 nM |
| CCC(C)(C)C(=O)N(C)c1cnc2nc(-c3n[nH]c4c3C[C@@H]3C[C@]3(C)C4)[nH]c2c1 [Example 88, N,2,2-Trimethyl-N-(2-((4aS,5aR)-5a-methyl-1,4,4a,5,5a,6-hexahydrocyclopropa[f]indazol-3-yl)-1H-imidazo[4,5-b]pyridin-6-yl)butanamide] | 808 nM | 118 nM |
| CN(C(=O)C1CCOCC1)c1cnc2[nH]c(-c3n[nH]c4c3CCC(C)(C)C4)nc2c1 [Example 90, N-(2-(6,6-Dimethyl-4,5,6,7-tetrahydro-1H-indazol-3-yl)-3H-imidazo[4,5-b]pyridin-6-yl)-N-methyltetrahydro-2H-pyran-4-carboxamide] | 892 nM | 545 nM |
